Source: PMC7026418, “The kinase polypharmacology landscape of clinical PARP inhibitors” (Scientific Reports, 2020)
Like-named read-outs stand apart in the source and are kept apart here.

How the values were obtained:
Assay in all cases: biochemical
Design in all cases: DiscoveRx KINOMEscan active site-directed competition binding; percent of control kinase bound to immobilised ligand
[1] = molecular target: T1, ABL1(Y253F)-phosphorylated (Homo sapiens, UniProt P00519, Y253F)
T1 construct: phosphorylated

[2] = molecular target: T2, BMX (Homo sapiens, UniProt P51813)
T2 sequence (P51813 1-675): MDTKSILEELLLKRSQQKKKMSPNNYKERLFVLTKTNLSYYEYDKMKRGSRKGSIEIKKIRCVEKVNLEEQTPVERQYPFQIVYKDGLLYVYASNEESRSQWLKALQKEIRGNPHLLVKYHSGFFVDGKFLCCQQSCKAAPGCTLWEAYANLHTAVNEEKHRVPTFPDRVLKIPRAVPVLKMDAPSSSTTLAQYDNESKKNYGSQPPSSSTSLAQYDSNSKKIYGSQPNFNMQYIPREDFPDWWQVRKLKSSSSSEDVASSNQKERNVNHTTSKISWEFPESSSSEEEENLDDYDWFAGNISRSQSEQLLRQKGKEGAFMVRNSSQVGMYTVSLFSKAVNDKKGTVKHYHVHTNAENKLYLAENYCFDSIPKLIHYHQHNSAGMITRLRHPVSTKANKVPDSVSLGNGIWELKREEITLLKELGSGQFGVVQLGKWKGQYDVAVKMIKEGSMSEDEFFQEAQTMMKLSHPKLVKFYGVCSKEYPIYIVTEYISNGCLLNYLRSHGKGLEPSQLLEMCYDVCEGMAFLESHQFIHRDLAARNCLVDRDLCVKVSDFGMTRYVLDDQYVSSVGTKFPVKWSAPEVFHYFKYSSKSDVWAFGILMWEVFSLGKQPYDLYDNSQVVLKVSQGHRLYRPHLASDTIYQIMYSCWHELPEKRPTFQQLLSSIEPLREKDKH

[3] = molecular target: T3, FLT3-autoinhibited (Homo sapiens, UniProt P36888)
T3 sequence (P36888 1-993): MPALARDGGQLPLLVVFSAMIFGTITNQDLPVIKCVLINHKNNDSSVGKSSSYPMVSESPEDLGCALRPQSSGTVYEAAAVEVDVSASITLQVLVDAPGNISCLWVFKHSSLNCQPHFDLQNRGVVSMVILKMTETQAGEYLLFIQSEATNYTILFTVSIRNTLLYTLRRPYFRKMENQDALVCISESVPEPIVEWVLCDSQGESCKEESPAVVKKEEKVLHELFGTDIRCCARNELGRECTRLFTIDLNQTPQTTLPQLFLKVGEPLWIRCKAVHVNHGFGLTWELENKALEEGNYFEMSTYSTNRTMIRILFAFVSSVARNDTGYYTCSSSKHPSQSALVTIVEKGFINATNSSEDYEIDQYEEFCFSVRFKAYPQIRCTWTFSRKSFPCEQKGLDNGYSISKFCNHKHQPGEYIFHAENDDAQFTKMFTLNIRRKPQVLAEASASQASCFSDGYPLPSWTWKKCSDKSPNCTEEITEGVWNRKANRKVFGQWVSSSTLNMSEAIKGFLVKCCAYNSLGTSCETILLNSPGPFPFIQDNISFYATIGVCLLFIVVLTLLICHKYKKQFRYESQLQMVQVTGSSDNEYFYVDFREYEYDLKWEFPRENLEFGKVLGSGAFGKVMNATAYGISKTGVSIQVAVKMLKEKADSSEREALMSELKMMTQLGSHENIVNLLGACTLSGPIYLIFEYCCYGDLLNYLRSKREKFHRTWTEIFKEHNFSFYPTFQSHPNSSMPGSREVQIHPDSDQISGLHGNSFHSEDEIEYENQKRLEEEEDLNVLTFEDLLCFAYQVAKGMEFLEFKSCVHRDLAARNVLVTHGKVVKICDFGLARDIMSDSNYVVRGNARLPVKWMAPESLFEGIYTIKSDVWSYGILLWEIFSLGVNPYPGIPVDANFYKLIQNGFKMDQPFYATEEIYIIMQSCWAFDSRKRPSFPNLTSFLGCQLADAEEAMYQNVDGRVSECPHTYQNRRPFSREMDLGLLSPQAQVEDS

[4] = read-out: Talazoparib (BMN 673) / %Ctrl @ 10000nM
[5] = read-out: Olaparib / %Ctrl @ 10000nM
[6] = read-out: Niraparib (MK-4827) / %Ctrl @ 10000nM
[7] = read-out: Rucaparib / %Ctrl @ 10000nM, binding competition, % of control

## Cn1ncnc1[C@H]1c2n[nH]c(=O)c3cc(F)cc(c23)N[C@@H]1c1ccc(F)cc1 [Talazoparib]
[1]; [4]
  percent of control binding at 10 µM: 100%
[2]; [4]
  percent of control binding at 10 µM: 100%
[3]; [4]
  percent of control binding at 10 µM: 100%

## O=C(c1cc(Cc2n[nH]c(=O)c3ccccc23)ccc1F)N1CCN(C(=O)C2CC2)CC1 [Olaparib]
[1]; [5]
  percent of control binding at 10 µM: 79%
[2]; [5]
  percent of control binding at 10 µM: 98%
[3]; [5]
  percent of control binding at 10 µM: 87%

## NC(=O)c1cccc2cn(-c3ccc([C@@H]4CCCNC4)cc3)nc12 [Niraparib]
[1]; [6]
  percent of control binding at 10 µM: 57%
[2]; [6]
  percent of control binding at 10 µM: 87%
[3]; [6]
  percent of control binding at 10 µM: 84%

## CNCc1ccc(-c2[nH]c3cc(F)cc4c3c2CCNC4=O)cc1 [Rucaparib]
[1]; [7]
  percent of control binding at 10 µM: 69%
[2]; [7]
  percent of control binding at 10 µM: 91%
[3]; binding competition, % of control
  Rucaparib / %Ctrl @ 10000nM: 93%
